In patent US5264420A, “Fibrinogen receptor antagonists” (Merck & Co., Inc., priority 1992, dated 1993):

These molecules were tested on blood platelets (assay: Inhibition of platelet aggregation).
Assay type: cell-based

`O=C(O)C[C@@H](CCc1ccccc1)NC(=O)CN(Cc1ccccc1)C(=O)CCCC1CCNCC1` [(1), Pib-N-(benzyl)Gly-3(R)-(2-phenethyl)-β-alanine] was tested. Which IC50 did it give?
The IC50 was 0.25 µM.

With `CCCCN(CC(=O)N[C@H](CCc1ccccc1)CC(=O)O)C(=O)CCCC1CCNCC1` [(2), Pib-N-(n-butyl)Gly-3(R)-(2-phenethyl)-β-alanine] as the molecule, how does the IC50 read?
Its IC50 is 0.077 µM.

With `CC(C)N(C(=O)CCCC1CCNCC1)[C@H](CCc1ccccc1)CC(=O)O` [(3), Pib-N-(i-Propyl)-3(R)-(2-phenethyl)-β-alanine] as the molecule, how does the IC50 read?
The IC50 was 0.099 µM.

With `O=C(O)C[C@@H](CCc1ccccc1)NC(=O)CN(CCc1ccccc1)C(=O)CCCC1CCNCC1` [(4), Pib-N-(2-phenethyl)Gly-3(R)-(2-phenethyl)-β-alanine] as the molecule, how does the IC50 read?
The IC50 was 0.087 µM.

For `CCOC(=O)C[C@H](CCc1c[nH]c2ccccc12)NC(=O)CNC(=O)CCCC1CCNCC1` [(5), Pib-Gly-3(S)-[2-(indol-3-yl)ethyl]-β-alanine ethyl ester], which IC50 is on record?
Its IC50 is greater than 1 µM.

For `O=C(O)C[C@H](CCc1c[nH]c2ccccc12)NC(=O)CNC(=O)CCCC1CCNCC1` [(6), Pib-Gly-3(S)-[2-(indol-3-yl)ethyl]β-alanine], which IC50 is on record?
The IC50 was 31 µM.

With `CC(CCc1ccccc1)(CC(=O)O)NC(=O)CNC(=O)CCCC1CCNCC1` (centres unmarked) [(7)] as the molecule, how does the IC50 read?
The IC50 was greater than 300 µM.

With `O=C(O)CC(CCO)NC(=O)CNC(=O)CCCC1CCNCC1` (stereo not drawn) [(8), Pib-Gly-3-[2-(hydroxy)ethyl]β-alanine] as the molecule, how does the IC50 read?
The IC50 was greater than 1 µM.

Which IC50 does the source give for `O=C(O)CC(CCCCO)NC(=O)CNC(=O)CCCC1CCNCC1` (stereo not drawn) [(9), Pib-Gly-3-[4-(hydroxy)butyl],β-alanine] here?
The IC50 was 3.7 µM.

Which IC50 does the source give for `O=C(O)CC(COc1ccccc1)NC(=O)CNC(=O)CCCC1CCNCC1` (stereo not drawn) [(10), Pib-Gly-3-(phenoxymethyl)β-alanine] here?
The IC50 was 2.1 µM.

`O=C(O)CC(CCc1c[nH]cn1)NC(=O)CNC(=O)CCCC1CCNCC1` (stereo not drawn) [(11), Pib-Gly-3-[2-(imidazol-4-yl)ethyl]β-alanine] was tested. Which IC50 did it give?
Its IC50 is 2.7 µM.

Which IC50 does the source give for `O=C(O)CC(CCc1cncn1Cc1ccccc1)NC(=O)CNC(=O)CCCC1CCNCC1` (stereo not drawn) [(12), Pib-Gly-3-[2-(3-benzylimidazol-4-yl)ethyl]β-alanine] here?
The IC50 was 1.5 µM.

How did the IC50 turn out when `Cc1[nH]c2ccccc2c1CCC(CC(=O)O)NC(=O)CNC(=O)CCCC1CCNCC1` (stereo not drawn) [(14), Pib-Gly-3-[2-(2-methylindol-3-yl)ethyl]β-alanine] was run?
Its IC50 is 1.1 µM.

“Pib-Gly-3-(3-carboxypropyl)β-alanine [(13)]” was tested. Which IC50 did it give?
Its IC50 is 4 µM.
